Laboratory results as given in patent US10040802B2, “Thienopyrazine inhibitors of IRAK4 activity” (MERCK SHARP & DOHME CORP., priority 2015, dated 2018).
Where a name gives a salt, the structure may show the parent alone.

Molecular target: GST tagged IRAK4 (Homo sapiens (Human), UniProt Q9NWZ3)
Assay: IRAK4 Kinase Assay (IMAP fluorescence polarization)
Assay type: biochemical
Conditions: 0.5 nM GST tagged IRAK4, 100 μM ATP, 30 minutes at 25° C.
Protocol: The kinase activity of IRAK4 is determined by its ability to catalyze the phosphorylation of a fluorescent polypeptide substrate. The extent of phosphorylation is measured using the IMAP technology (Molecular Devices) where the phosphorylated fluorescent substrate binds to the large M(III)-based nanoparticles which reduces the rotational speed of the substrate and thus increases its fluorescent polarization (FP).
20 μL reaction mixture contains 10 mM TriHCl, pH 7.2, 0.5 nM GST tagged IRAK4 (SignalChem), 100 nM fluorescent peptide substrate (RP7030, Molecular Devices), 100 μM ATP, 1 mM DDT, 1 mM MgCl2, and 0.01% Tween 20. The reaction is initiated by the addition of ATP. After incubation for 30 minutes at 25° C., 60 μL of Progressive IMAP Reagent (Molecular Devices) is added to stop the reaction. Change in RP7030's FP is determined by a FP reader (Analyst HT, LJL BioSystems).

GST tagged IRAK4, sequence (Q9NWZ3 whole entry): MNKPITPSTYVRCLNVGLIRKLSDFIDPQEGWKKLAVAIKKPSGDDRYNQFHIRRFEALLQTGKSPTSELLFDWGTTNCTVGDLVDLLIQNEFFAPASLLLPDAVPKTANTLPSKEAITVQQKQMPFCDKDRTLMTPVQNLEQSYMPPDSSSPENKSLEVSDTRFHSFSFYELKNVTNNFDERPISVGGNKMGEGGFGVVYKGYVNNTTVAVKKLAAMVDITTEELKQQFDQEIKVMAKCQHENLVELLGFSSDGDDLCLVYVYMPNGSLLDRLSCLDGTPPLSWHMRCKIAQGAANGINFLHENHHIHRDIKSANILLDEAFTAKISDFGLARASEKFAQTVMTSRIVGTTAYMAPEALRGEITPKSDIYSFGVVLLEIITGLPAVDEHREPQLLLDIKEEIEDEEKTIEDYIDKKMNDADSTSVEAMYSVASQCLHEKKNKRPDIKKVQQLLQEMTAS

SMILES | IC50
N#Cc1ccccc1NC(=O)c1csc2ncc(N3CCCNCC3)nc12 [Example 80, N-(2-Cyanophenyl)-2-(1,4-diazepan-1-yl)thieno[2,3-b]pyrazine-7-carboxamide] | 558 nM
Cn1cc(NC(=O)c2csc3ncc(N4C[C@H]5CC[C@@H]4CN5)nc23)c(C#N)n1 (single isomer, unassigned) [Example 27, N-(3-cyano-1-methyl-1H-pyrazol-4-yl)-2-[(1S,4S)- or (1R,4R)-2,5-diazabicyclo[2.2.2]oct-2-yl]thieno[2,3-b] pyrazine-7-carboxamide trifluoroacetate] | 37 nM
Cn1cc(NC(=O)c2csc3ncc(N4C[C@@H]5CC[C@H]4CN5)nc23)c(Br)n1 (single isomer, unassigned) [Example 19, N-(3-bromo-1-methyl-1H-pyrazol-4-yl)-2-[(1S,4S)- or (1R,4R)-2,5-diazabicyclo[2.2.2]oct-2-yl]thieno[2,3-b] pyrazine-7-carboxamide trifluoroacetate] | 70 nM
Cn1cc(NC(=O)c2csc3ncc(N[C@H]4CCCCNC4)nc23)c(C(F)F)n1 (single isomer, unassigned) [Example 34, 2-[(3S)- or (3R)-azepan-3-ylamino]-N-[3-(difluoromethyl)-1-methyl-1H-pyrazol-4-yl]thieno[2,3-b] pyrazine-7-carboxamide trifluoroacetate] | 2 nM
O=C(Nc1ccsc1C(F)(F)F)c1csc2ncc(N3C[C@H]4CC[C@@H]3CN4)nc12 (single isomer, unassigned) [Example 75, 2-[(1S,4S)- or (1R,4R)-2,5-diazabicyclo [2.2.2]oct-2-yl]-N-[2-(trifluoromethyl)thiophen-3-yl] thieno[2,3-b] pyrazine-7-carboxamide trifluoroacetate] | 1230 nM
O=C(Nc1cscc1C(F)F)c1csc2ncc(N3C[C@H]4CC[C@@H]3CN4)nc12 (single isomer, unassigned) [Example 59, 2-[(1S,4S)- or (1R,4R)-2,5-diazabicyclo [2.2.2]oct-2-yl]-N-[4-(difluoromethyl)thiophen-3-yl] thieno[2,3-b] pyrazine-7-carboxamide trifluoroacetate] | 21 nM
Cn1cc(NC(=O)c2csc3ncc(N4CCNCC4)nc23)c(C(F)F)n1 [Example 12, N-[3-(difluoromethyl)-1-methyl-1H-pyrazol-4-yl]-2-piperazin-1-ylthieno[2,3-b] pyrazine-7-carboxamide trifluoroacetate] | 3 nM
O=C(Nc1ccsc1Cl)c1csc2ncc(N3C[C@@H]4CC[C@H]3CN4)nc12 (single isomer, unassigned) [Example 61, N-(2-chlorothiophen-3-yl)-2-[(1S,4S)- or (1R,4R)-2,5-diazabicylo[2.2.2]oct-2-yl]thieno[2,3-b] pyrazine-7-carboxamide trifluoroacetate] | 689 nM
N[C@@H]1[C@H](Nc2cnc3scc(C(=O)Nc4cscc4C(F)F)c3n2)CCCC1(F)F [Example 67, 2-{[(1R,2R)-2-amino-3,3-difluorocyclohexyl]amino}-N-[4-(difluoromethyl)thiophen-3-yl] thieno[2,3-b] pyrazine-7-carboxamide trifluoroacetate] | 330 nM
N#Cc1cscc1NC(=O)c1csc2ncc(N3C[C@H]4CC[C@@H]3CN4)nc12 (single isomer, unassigned) [Example 66, N-(4-cyanothiophen-3-yl)-2-[(1S,4S)- or (1R,4R)-2,5-diazabicylo[2.2.2]oct-2-yl]thieno[2,3-b] pyrazine-7-carboxamide formate] | 220 nM
N[C@@H]1[C@H](Nc2cnc3scc(C(=O)Nc4cscc4Br)c3n2)CCCC1(F)F [Example 68, 2-{[(1R,2R)-2-amino-3,3-difluorocyclohexyl]amino}-N-(4-bromothiophen-3-yl) thieno[2,3-b] pyrazine-7-carboxamide formate] | 2100 nM
Cn1cc(NC(=O)c2csc3ncc(N4CCCNCC4)nc23)c(C(F)(F)F)n1 [Example 6, 2-(1,4-diazepan-1-yl)-N-[1-methyl-3-(trifluoromethyl)-1H-pyrazol-4-yl] thieno[2,3-b] pyrazine-7-carboxamide] | 17 nM
N#Cc1ccccc1NC(=O)c1csc2ncc(N3CCNCC4(CC4)C3)nc12 [Example 83, N-(2-cyanophenyl)-2-(5,8-diazaspiro-[2.6]non-5-yl)-thieno[2,3-b]-pyrazine-7-carboxamide trifluoroacetate] | 899 nM
N#Cc1ccccc1NC(=O)c1csc2ncc(N3CCNCC3)nc12 [Example 86, N-(2-cyanophenyl)-2-piperazin-1-yl-thieno[2,3-b]-pyrazine-7-carboxamide trifluoroacetate] | 292 nM
Cn1cc(NC(=O)c2csc3ncc(N4C[C@@H]5CC[C@H]4CN5)nc23)c(C(F)F)n1 (single isomer, unassigned) [Example 22, 2-[(1S,4S)- or (1R,4R)-2,5-diazabicyclo[2.2.2]oct-2-yl]-N-[3-(difluoromethyl)-1-methyl-1H-pyrazol-4-yl]thieno[2,3-b] pyrazine-7-carboxamide trifluoroacetate] | 7 nM
Cn1cc(NC(=O)c2csc3ncc(N4C[C@H]5CC[C@@H]4CN5)nc23)c(Cl)n1 (single isomer, unassigned) [Example 17, N-(3-chloro-1-methyl-1H-pyrazol-4-yl)-2-[(1S,4S)- or (1R,4R)-2,5-diazabicyclo[2.2.2]oct-2-yl]thieno[2,3-b] pyrazine-7-carboxamide trifluoroacetate] | 15 nM
N[C@H]1CCCC[C@H]1Nc1cnc2scc(C(=O)Nc3ccccc3Cl)c2n1 [Example 92, 2-{(1R,2S)-2-aminocyclohexyl]-amino}-N-(2-chlorophenyl)-thieno[2,3-b]-pyrazine-7-carboxamide trifluoroacetate] | 0.8 nM
N[C@H]1CCCC[C@H]1Nc1cnc2scc(C(=O)Nc3ccsc3Br)c2n1 [Example 54, 2-{[(1R,2S)-2-amino-cyclohexyl]amino}-N-(2-bromothiophen-3-yl)thieno[2,3-b] pyrazine-7-carboxamide trifluoroacetate] | 1 nM
N[C@H]1CCCC[C@H]1Nc1cnc2scc(C(=O)Nc3cscc3Cl)c2n1 [Example 110, 2-{[(1R,2S)-2-aminocyclohexyl]-amino}-N-(4-chlorothiophen-3-yl)thieno[2,3-b]-pyrazine-7-carboxamide trifluoroacetate] | 0.7 nM
N#Cc1cscc1NC(=O)c1csc2ncc(N[C@@H]3CCCC[C@@H]3N)nc12 [Example 57, 2-{[(1R,2S)-2-amino-cyclohexyl]amino}-N-(4-cyanothiophen-3-yl)thieno[2,3-b] pyrazine-7-carboxamide trifluoroacetate] | 0.5 nM
O=C(Nc1ccsc1Cl)c1csc2ncc(N3C[C@H]4CC[C@@H]3CN4)nc12 (single isomer, unassigned) [Example 62, N-(2-chlorothiophen-3-yl)-2-[(1S,4S)- or (1R,4R)-2,5-diazabicylo[2.2.2]oct-2-yl]thieno[2,3-b] pyrazine-7-carboxamide trifluoroacetate] | 274 nM
N#Cc1ccccc1NC(=O)c1csc2ncc(N[C@@H]3CCCC[C@@H]3N)nc12 [Example 95, 2-{[(1R,2S)-2-aminocyclohexyl]-amino}-N-(2-cyanophenyl)-thieno[2,3-b]-pyrazine-7-carboxamide trifluoroacetate] | 0.5 nM
Cn1cc(NC(=O)c2csc3ncc(N4C[C@H]5CC[C@@H]4CN5)nc23)c(C(F)F)n1 (single isomer, unassigned) [Example 23, 2-[(1S,4S)- or (1R,4R)-2,5-diazabicyclo[2.2.2]oct-2-yl]-N-[3-(difluoromethyl)-1-methyl-1H-pyrazol-4-yl]thieno[2,3-b] pyrazine-7-carboxamide trifluoroacetate] | 1 nM
Cn1cc(NC(=O)c2csc3ncc(N[C@@H]4CCCC(F)(F)[C@@H]4N)nc23)c(C#N)n1 [Example 36, 2-{[(1R,2R)-2-amino-3,3-difluorocyclohexyl]amino}-N-(3-cyano-1-methyl-1H-pyrazol-4-yl]thieno[2,3-b] pyrazine-7-carboxamide trifluoroacetate] | 50 nM
N#Cc1sccc1NC(=O)c1csc2ncc(N3C[C@@H]4CC[C@H]3CN4)nc12 (single isomer, unassigned) [Example 69, N-(2-cyanothiophen-3-yl)-2-[(1S,4S)- or (1R,4R)-2,5-diazabicyclo[2.2.2]oct-2-yl]thieno[2,3-b] pyrazine-7-carboxamide trifluoroacetate] | 228 nM
N#Cc1ccccc1NC(=O)c1csc2ncc(N[C@H]3CCCCNC3)nc12 (single isomer, unassigned) [Example 93, 2-[(3S)- or (3R)-azepan-3-ylamino]-N-(2-cyanophenyl)-thieno[2,3-b]-pyrazine-7-carboxamide trifluoroacetate] | 4 nM
N[C@H]1CCCC[C@H]1Nc1cnc2scc(C(=O)Nc3ccccc3C(F)(F)F)c2n1 [Example 81, 2-{[(1R,2S)-2-aminocyclo-hexyl]amino}-N-[2-(trifluoromethyl)phenyl]thieno[2,3-b]pyrazine-7-carboxamide trifluoroacetate] | 86 nM
Cn1cc(NC(=O)c2csc3ncc(N[C@@H]4CCCNC4)nc23)c(C(F)F)n1 [Example 32, N-[3-(difluoromethyl)-1-methyl-1H-pyrazol-4-yl]-2-[(3R)-piperidin-3-ylamino]thieno [2,3-b]pyrazine-7-carboxamide] | 0.4 nM
N#Cc1sccc1NC(=O)c1csc2ncc(N3CCCNCC3)nc12 [Example 72, N-(2-cyanothiophen-3-yl)-2-(1,4-diazepan-1-yl)thieno[2,3-b] pyrazine-7-carboxamide trifluoroacetate] | 422 nM
